According to patent publication US20250297152A1, “FLUORINATED SUBSTITUTED OLEFIN REFRIGERANTS AND METHODS OF COOLING ELECTRONICS” (Honeywell International Inc., priority 2024, published 2025):

Columns and labels:
[1] = Dielectric constant (Agilent 85070 Dielectric Probe; ASTM D150-11); assay type: physicochemical; details: for Dielectric Constant (20 GHz): Table 3, values understood as 'about'; for Calculated Dk at 20 GHz: Table E1, ambient pressure, room temperature (approximately 23° C.)
Protocol: “Dielectric Constant” means the dielectric constant as measured in accordance with ASTM D150-11 at room temperature at 20 giga hertz (GHz).
(§1) The boiling point (“BP”) and dielectric constant (“Dk”) of trans- and cis-secBuFO and trans- and cis-tBuFO were determined and the results are reported below in Table E1. The dielectric property of each of trans- and cis-secBuFO and trans- and cis-tBuFO was determined using the Agilent 85070 Dielectric Probe. All measurements were made at ambient pressure and room temperature (approximately 23° C.). Prior to making measurements, the system was calibrated from 1 GHz to 20 GHz with an open circuit, a short circuit, and DI water (@22.4° C.) standard. The result of the calibration is shown in the Table E1 below for DI H2O, and is consistent with DI water at 22.4° C. The accuracy of the probe is given as: Dielectric constant, er′=er′+/−0.05|er*| with er″=er″+/−0.05|er*| and (loss=er″/er′).

[2] = assay type: physicochemical; details: for BP: Table E1
Protocol: as §1

[3] = Toxicological screening study: in vivo acute oral toxicity and 4-hour acute inhalation toxicity; details: acute oral 2,000 mg/kg/day; 4-hour acute inhalation at 18,375 ppm
Protocol: “Acceptable toxicity” means a fluid that has toxicity within acceptable limits. This is experimentally determined by a toxicological screening study to assess in vivo acute oral toxicity at a dosage of 2,000 mg/kg/day and 4-hour acute inhalation toxicity at a concentration of about 20,000 ppm.
A fluid including the trans isomer of the SecBuFO refrigerant was subjected experimentally a toxicological screening study to assess in vivo acute oral toxicity at a dosage of 2,000 mg/kg/day and 4-hour acute inhalation toxicity at a concentration of 18,375 ppm.

Row | Structure (SMILES) | Dielectric Constant (20 GHz) [1] | Calculated Dk at 20 GHz [1] | Boiling point [2] | BP [2] | toxicology screening study outcome [3]
1 | F/C=C\C(F)(C(F)(F)F)C(F)(F)C(F)(F)F (stereo not drawn) [cis-secBuFO, cis-1,3,4,4,5,5,5-heptafluoro-3-(trifluoromethyl)pent-1-ene] | 6.48 | 6.48 | 79.27 °C | 79.27 °C | –
2 | F/C=C\C(C(F)(F)F)(C(F)(F)F)C(F)(F)F [cis-tBuFO, cis-1,4,4,4-tetrafluoro-3,3-bis(trifluoromethyl)but-1-ene] | 6.51 | 6.51 | 76.19 °C | 76.19 °C | –
3 | F/C=C/C(F)(C(F)(F)F)C(F)(F)C(F)(F)F (stereo not drawn) [trans-secBuFO, trans-1,3,4,4,5,5,5-heptafluoro-3-(trifluoromethyl)pent-1-ene] | 2.11 | 2.11 | 55.5-55.9 °C | 55.5-55.9 °C | passed
4 | F/C=C/C(C(F)(F)F)(C(F)(F)F)C(F)(F)F [trans-tBuFO, trans-1,4,4,4-tetrafluoro-3,3-bis(trifluoromethyl)but-1-ene] | 2.15 | 2.15 | 57.9 °C | 57.9 °C | –
